Reference: US11970463B2, “Compounds and their use” (ASTRAZENECA AB, priority 2021, dated 2024)
Converted amounts (≈) assume the structure as drawn. Like-named read-outs stand apart in the source and are kept apart here.

Assays:
hERG = hERG (Homo sapiens (Human), UniProt Q12809); assay: hERG assay (Test D), SyncroPatch 384PE patch clamp, hERG-expressing CHO cells; type: cell-based; conditions: rt
Solubility (Test E) = type: physicochemical
[1] = Solubility (Test F), McIlvaine buffer pH 6.5; type: physicochemical; conditions: 25 °C, pH 6.5, aqueous buffer, thermodynamic from solid, McIlvaine buffer pH 6.5, 25° C., 24 to 72 h, theoretical maximum 200 μM
IL-1β production = assay: LPS/ATP test in mice, peritoneal IL-1β by ELISA; type: in vivo, BALB/cAJcl mice; conditions: Mus musculus, LPS/ATP i.p.; for inhibition at 3 mg/kg: 3 mg/kg orally; for inhibition at 1 mg/kg: 1 mg/kg orally
Human NLRP3 [2] = target: T1, Human NLRP3 (Homo sapiens (Human), UniProt Q96P20); conditions: Test C IC50, IL-1β release, THP-1 cells, LPS 2 μg/mL 24 h, BzATP 1 mM
Human NLRP3 [3] = target: T1, Human NLRP3
Human NLRP3 [4] = target: T1, Human NLRP3; assay: Human NLRP3 speck formation assay (Test A), nigericin triggered ASC-speck formation in ASC-GFP reporter monocytes
[5] = disodium hydrogenphosphate-citric acid (McIlvaine) buffer

T1 sequence (Q96P20 whole entry): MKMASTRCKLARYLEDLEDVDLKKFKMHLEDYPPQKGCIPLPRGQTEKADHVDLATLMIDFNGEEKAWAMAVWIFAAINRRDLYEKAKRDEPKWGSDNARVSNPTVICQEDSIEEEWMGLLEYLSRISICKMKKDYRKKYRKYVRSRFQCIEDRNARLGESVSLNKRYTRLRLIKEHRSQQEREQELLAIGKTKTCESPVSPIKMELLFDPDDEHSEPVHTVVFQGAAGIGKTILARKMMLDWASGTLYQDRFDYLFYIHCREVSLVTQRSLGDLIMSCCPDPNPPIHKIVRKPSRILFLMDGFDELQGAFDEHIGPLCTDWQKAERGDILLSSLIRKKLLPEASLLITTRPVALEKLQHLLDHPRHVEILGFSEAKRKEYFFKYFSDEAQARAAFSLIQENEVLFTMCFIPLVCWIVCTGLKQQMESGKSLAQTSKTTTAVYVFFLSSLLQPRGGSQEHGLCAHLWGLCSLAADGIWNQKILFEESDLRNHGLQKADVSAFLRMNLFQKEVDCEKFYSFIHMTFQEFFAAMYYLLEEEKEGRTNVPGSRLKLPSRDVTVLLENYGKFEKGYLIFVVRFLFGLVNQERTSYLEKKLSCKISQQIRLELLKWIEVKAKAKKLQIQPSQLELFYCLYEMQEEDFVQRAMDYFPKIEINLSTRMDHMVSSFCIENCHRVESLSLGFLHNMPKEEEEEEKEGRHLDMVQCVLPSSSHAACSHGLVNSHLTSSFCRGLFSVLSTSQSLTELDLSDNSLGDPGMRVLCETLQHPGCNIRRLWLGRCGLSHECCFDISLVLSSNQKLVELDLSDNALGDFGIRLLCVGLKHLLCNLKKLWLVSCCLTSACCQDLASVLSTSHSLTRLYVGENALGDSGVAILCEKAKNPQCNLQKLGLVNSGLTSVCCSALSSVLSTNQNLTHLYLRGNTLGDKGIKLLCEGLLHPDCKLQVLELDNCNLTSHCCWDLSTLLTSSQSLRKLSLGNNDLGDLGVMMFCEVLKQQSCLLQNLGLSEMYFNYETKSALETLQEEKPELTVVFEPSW
hERG, sequence (Q12809 whole entry): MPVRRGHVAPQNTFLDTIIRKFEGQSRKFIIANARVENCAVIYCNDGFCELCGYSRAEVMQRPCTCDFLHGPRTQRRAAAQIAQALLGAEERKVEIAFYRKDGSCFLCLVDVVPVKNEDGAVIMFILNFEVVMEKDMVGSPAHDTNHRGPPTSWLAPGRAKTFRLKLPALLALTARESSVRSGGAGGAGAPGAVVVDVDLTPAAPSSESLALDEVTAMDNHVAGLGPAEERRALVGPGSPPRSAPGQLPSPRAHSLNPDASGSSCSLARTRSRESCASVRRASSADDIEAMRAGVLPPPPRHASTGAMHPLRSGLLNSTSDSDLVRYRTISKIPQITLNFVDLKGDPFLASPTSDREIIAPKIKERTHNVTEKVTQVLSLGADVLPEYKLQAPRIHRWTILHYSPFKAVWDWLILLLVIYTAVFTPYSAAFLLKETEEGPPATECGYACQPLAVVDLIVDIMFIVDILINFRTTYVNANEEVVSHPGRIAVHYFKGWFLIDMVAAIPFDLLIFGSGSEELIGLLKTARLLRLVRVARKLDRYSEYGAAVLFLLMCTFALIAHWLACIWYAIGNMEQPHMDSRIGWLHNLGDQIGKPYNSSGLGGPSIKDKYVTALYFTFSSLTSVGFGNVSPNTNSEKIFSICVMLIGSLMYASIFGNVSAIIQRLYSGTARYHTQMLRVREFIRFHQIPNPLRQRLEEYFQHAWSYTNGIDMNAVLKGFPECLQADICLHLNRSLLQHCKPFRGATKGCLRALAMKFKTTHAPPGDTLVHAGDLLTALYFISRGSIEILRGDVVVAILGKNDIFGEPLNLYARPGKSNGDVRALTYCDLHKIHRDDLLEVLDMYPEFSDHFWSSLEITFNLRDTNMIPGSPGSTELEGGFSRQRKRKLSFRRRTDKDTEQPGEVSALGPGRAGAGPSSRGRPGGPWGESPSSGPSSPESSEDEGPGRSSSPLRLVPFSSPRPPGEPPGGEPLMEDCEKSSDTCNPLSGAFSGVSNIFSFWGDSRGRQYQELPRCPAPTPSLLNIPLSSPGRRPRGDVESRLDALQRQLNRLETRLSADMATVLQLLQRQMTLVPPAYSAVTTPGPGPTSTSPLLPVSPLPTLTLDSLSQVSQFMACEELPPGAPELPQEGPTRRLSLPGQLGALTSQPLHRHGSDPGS

| Structure (SMILES) | IC50 (hERG) | solubility (Solubility (Test E)) | solubility [1, 5] | inhibition at 3 mg/kg (IL-1β production) | IC50 (Human NLRP3 [2]) | IC50 (Human NLRP3 [3]) | EC50 (Human NLRP3 [4]) | inhibition at 1 mg/kg (IL-1β production) | solubility [1] |
| --- | --- | --- | --- | --- | --- | --- | --- | --- | --- |
| CC(C)(O)CNc1nnc(-c2ccc(C(F)(F)F)cc2O)c2ccncc12 [Example 70, 2-[4-[(2-hydroxy-2-methyl-propyl)amino]pyrido[3,4-d]pyridazin-1-yl]-5-(trifluoromethyl)phenol] | > 40000 nM | 5 µM (≈ 1.89 µg/mL) | 17.7 µg/mL (≈ 46.8 µM) | 98% | 10 nM | 26 nM | 67 nM | – | – |
| Oc1cc(C(F)(F)F)cc(F)c1-c1nnc(N[C@@H]2CCCC[C@H]2O)c2cnccc12 [Example 55, 3-fluoro-2-[4-[[(1R,2R)-2-hydroxycyclohexyl]amino]pyrido[3,4-d]pyridazin-1-yl]-5-(trifluoromethyl)phenol] | > 40000 nM | 529 µM (≈ 223 µg/mL) | 8.8 µg/mL (≈ 20.8 µM) | 91% | 6 nM | – | 38 nM | – | – |
| CC(C)(O)CNc1nnc(-c2c(O)cc(C(F)(F)F)cc2F)c2ccncc12 [Example 74, 3-fluoro-2-[4-[(2-hydroxy-2-methyl-propyl)amino]pyrido[3,4-d]pyridazin-1-yl]-5-(trifluoromethyl)phenol] | – | 17 µM (≈ 6.74 µg/mL) | 12.1 µg/mL (≈ 30.5 µM) | 68% | 18 nM | – | 204 nM | – | – |
| Cc1ccc2c(-c3ccc(C(F)(F)F)cc3O)nnc(NC[C@H](O)CO)c2c1 [Example 14, (2S)-3-[[4-[2-hydroxy-4-(trifluoromethyl)phenyl]-7-methyl-phthalazin-1-yl]amino]propane-1,2-diol] | – | 135 µM (≈ 53.1 µg/mL) | 56.3 µg/mL (≈ 143 µM) | 75% | 5 nM | – | 18 nM | – | – |
| Oc1cc(Cl)cc(F)c1-c1nnc(N[C@@H]2CCCC[C@H]2O)c2cnccc12 [Example 57, 5-chloro-3-fluoro-2-[4-[[(1R,2R)-2-hydroxycyclohexyl]amino]pyrido[3,4-d]pyridazin-1-yl]phenol] | > 40000 nM | 596 µM (≈ 232 µg/mL) | 36.9 µg/mL (≈ 94.9 µM) | 87% | 5 nM | – | 17 nM | 42% | – |
| Oc1cc(OC(F)(F)F)ccc1-c1nnc(N[C@@H]2CCCC[C@H]2O)c2cnccc12 [Example 56, 2-[4-[[(1R,2R)-2-hydroxycyclohexyl]amino]pyrido[3,4-d]pyridazin-1-yl]-5-(trifluoromethoxy)phenol] | 19000 nM | 263 µM (≈ 111 µg/mL) | 14.5 µg/mL (≈ 34.5 µM) | 98% | 3 nM | 8 nM | 25 nM | – | – |
| OC[C@@H](O)CNc1nnc(-c2c(O)cc(Cl)cc2F)c2ccccc12 [Example 9, (2S)-3-[[4-(4-chloro-2-fluoro-6-hydroxy-phenyl)phthalazin-1-yl]amino]propane-1,2-diol] | – | – | 67.3 µg/mL (≈ 185 µM) | 77% | 11 nM | – | 164 nM | – | – |
| Oc1cc(C(F)(F)F)cc(F)c1-c1nnc(N[C@@H]2CCC[C@H](O)C2)c2cnccc12 [Example 45, 3-fluoro-2-[4-[[(1R,3S)-3-hydroxycyclohexyl]amino]pyrido[3,4-d]pyridazin-1-yl]-5-(trifluoromethyl)phenol] | > 40000 nM | 121 µM (≈ 51.1 µg/mL) | 10.4 µg/mL (≈ 24.6 µM) | 82% | 9 nM | 25 nM | 44 nM | – | – |
| Oc1cc(Cl)cc(F)c1-c1nnc(N[C@@H]2CCC[C@H](O)C2)c2cnccc12 [Example 46, 5-chloro-3-fluoro-2-[4-[[(1R,3S)-3-hydroxycyclohexyl]amino]pyrido[3,4-d]pyridazin-1-yl]phenol] | > 40000 nM | 941 µM (≈ 366 µg/mL) | > 77.8 µg/mL | 65% | 3 nM | – | 37 nM | 23% | – |
| C[C@@]1(O)CC[C@@H](Nc2nnc(-c3ccc(C(F)(F)F)cc3O)c3ccncc23)C1 [Example 38, 2-[4-[[(1R,3R)-3-hydroxy-3-methyl-cyclopentyl]amino]pyrido[3,4-d]pyridazin-1-yl]-5-(trifluoromethyl)phenol] | > 40000 nM | 810 µM (≈ 328 µg/mL) | > 80.9 µg/mL | 83% | 9 nM | 16 nM | 27 nM | 29% | – |
| C[C@]1(O)CCC[C@@H](Nc2nnc(-c3ccc(C(F)(F)F)cc3O)c3ccncc23)C1 [Example 62, 2-[4-[[(1R,3S)-3-hydroxy-3-methyl-cyclohexyl]amino]pyrido[3,4-d]pyridazin-1-yl]-5-(trifluoromethyl)phenol] | > 40000 nM | 120 µM (≈ 50.2 µg/mL) | 25.7 µg/mL (≈ 61.4 µM) | 71% | 6 nM | – | 60 nM | – | – |
| Oc1cc(C(F)(F)F)ccc1-c1nnc(N[C@@H]2CCC[C@H](O)C2)c2cnccc12 [Example 41, 2-[4-[[(1R,3S)-3-hydroxycyclohexyl]amino]pyrido[3,4-d]pyridazin-1-yl]-5-(trifluoromethyl)phenol] | – | – | 8.6 µg/mL (≈ 21.3 µM) | 99% | – | – | – | 94% | – |
| Oc1cc(C(F)(F)F)ccc1-c1nnc(N[C@@H]2CC[C@@H](O)C2)c2cnccc12 [Example 59, 2-(4-(((1R,3R)-3-hydroxycyclopentyl)amino)pyrido[3,4-d]pyridazin-1-yl)-5-(trifluoromethyl)phenol] | > 40000 nM | 47 µM (≈ 18.3 µg/mL) | > 78.1 µg/mL | 70% | 5 nM | 9 nM | 16 nM | 44% | – |
| OC[C@@H](O)CNc1nnc(-c2c(O)cc(C(F)(F)F)cc2F)c2ccccc12 [Example 7, (2S)-3-[[4-[2-fluoro-6-hydroxy-4-(trifluoromethyl)phenyl]phthalazin-1-yl]amino]propane-1,2-diol] | > 40000 nM | 582 µM (≈ 231 µg/mL) | 70.3 µg/mL (≈ 177 µM) | 95% | 22 nM | 47 nM | 180 nM | 46% | – |
| C[C@@]1(O)CCC[C@@H](Nc2nnc(-c3ccc(C(F)(F)F)cc3O)c3ccncc23)C1 [Example 61, 2-[4-[[(1R,3R)-3-hydroxy-3-methyl-cyclohexyl]amino]pyrido[3,4-d]pyridazin-1-yl]-5-(trifluoromethyl)phenol] | 34000 nM | 389 µM (≈ 163 µg/mL) | – | 97% | 7 nM | – | 29 nM | – | 64 µg/mL (≈ 153 µM) |
| Oc1cc(C(F)(F)F)c(F)cc1-c1nnc(N[C@@H]2CCC[C@H](O)C2)c2cnccc12 [Example 53, 4-fluoro-2-[4-[[(1R,3S)-3-hydroxycyclohexyl]amino]pyrido[3,4-d]pyridazin-1-yl]-5-(trifluoromethyl)phenol] | – | – | 62.5 µg/mL (≈ 148 µM) | 65% | 7 nM | – | – | – | – |
| C[C@]1(O)CC[C@@H](Nc2nnc(-c3ccc(C(F)(F)F)cc3O)c3ccncc23)C1 [Example 39, 2-[4-[[(1R,3S)-3-hydroxy-3-methyl-cyclopentyl]amino]pyrido[3,4-d]pyridazin-1-yl]-5-(trifluoromethyl)phenol] | – | 48 µM (≈ 19.4 µg/mL) | 10.2 µg/mL (≈ 25.2 µM) | 58% | 7 nM | 18 nM | 59 nM | – | – |
| Oc1cc(C(F)(F)F)c(F)cc1-c1nnc(N[C@@H]2CCCC[C@H]2O)c2cnccc12 [Example 54, 4-fluoro-2-[4-[[(1R,2R)-2-hydroxycyclohexyl]amino]pyrido[3,4-d]pyridazin-1-yl]-5-(trifluoromethyl)phenol] | – | – | 45.7 µg/mL (≈ 108 µM) | 55% | 4 nM | – | – | – | – |
| Oc1cc(C(F)(F)F)ccc1-c1nnc(N[C@@H]2CC[C@H](O)C2)c2cnccc12 [Example 60, 2-(4-(((1R,3S)-3-hydroxycyclopentyl)amino)pyrido[3,4-d]pyridazin-1-yl)-5-(trifluoromethyl)phenol] | > 40000 nM | 26 µM (≈ 10.1 µg/mL) | 10.3 µg/mL (≈ 26.4 µM) | 97% | < 3 nM | 12 nM | 17 nM | 60% | – |
